“Also recorded” adds a separate entry of the source.

The subject of one assay is Drd2KD cells. The assay can be described thus: Differentiation into insulin-producing cells in dopamine D2 receptor knock-down cell line. Format: cell-based, mouse. Particulars: 0.63 μM reserpine, Drd2KD cells (FIG. 9B). Here is the method: In the Vmat2-knockdown and Drd2-knockdown assays, Expression Arrest non-silencing control shRNA (Open Biosystems, #RHS4080), Vmat2 hRNA (Open Biosystems, #RMM3981-97058457 and #RMM3981-97058458) or Drd2 hRNA (Open Biosystems, #RMM3981-9594258) lentiviral vectors were used. For virus preparation, HEK293-FT cells (Invitrogen) were seeded on a plate medium the day before transfection. After overnight culture, the cells were transfected with lentiviral vectors and ViraPower™ Lentiviral Packaging Mix (Invitrogen) using FuGENE6 Transfection Reagent (Roche) according to the manufacturer's protocol. Cells were incubated in the ES maintenance medium for 24 hours, and viral supernatants were collected. Then, SK7 cells were infected with the viral supernatants. After incubation for 24 hours, the virus-containing medium was replaced with fresh ES maintenance medium. Further 24 hours later, the infected cells were selected using […] puromycin. The surviving cells were cloned as a knockdown-cell lines.
To confirm that a dopamine signal suppresses the differentiation into insulin-expressing cells through activation of its receptor, a dopamine D2 receptor knock-down cell line, Drd2KD was established (FIG. 9A).

Assay [1] has as its system mouse ES cells (Pdx1/GFP). Description: Differentiation of mouse ES cells into insulin positive cells on nano fiber plate, immunostaining and quantitative image analysis. Format: cell-based. To be noted: for effect on differentiation into insulin-expressing cells: compound added d11-d17, insulin staining d17 (FIG. 4, 5, 7, 8, 10). From the text:
Two ES cell lines, one expressing green fluorescent protein (GFP) under the control of insulin 1 promoter, designed ING (Higuchi Y., Shiraki N., Yamane K, Qin Z., Mochitate K., Araki K., Senokuchi K., Yamagata K., Hara M., Kume K., and Kume S., Synthesized basement membranes direct the differentiation of mouse embryonic stem cells into pancreatic lineages. J. Cell Science, 123, 2733-2742, 2010), and the other one expressing GFP under the control of Pdx1 promoter, designated SK7 (Shiraki N, Yoshida T, Araki K, et al. Guided differentiation of embryonic stem cells into Pdx1-expressing regional-specific definitive endoderm. Stem Cells. 2008; 26:874-885), were used. Both cell lines were maintained on mouse embryonic fibroblast (MEF) feeders in Glasgow minimum essential medium (Invitrogen) containing 1000 units/ml leukemia inhibitory factor (LIF; Chemicon), 15% Knocked-out Serum Replacement (KSR; Gibco), 1% fetal bovine serum (FBS; Hyclone), 100 μM nonessential amino acids (NEAA; Invitrogen), 2 mM L-glutamine (L-Gln; Invitrogen), 1 mM sodium pyruvate (Invitrogen), 50 units/ml penicillin and 50 μg/ml streptomycin (PS; Invitrogen) and 100 μM β-mercaptoethanol (β-ME; Sigma), as ES maintenance medium.
For the differentiation studies, ES cells were plated at 5,000 cells per well in Corning 96 well plate with Ultra-Web Synthetic Polyamine Surface (#3873XX1, Corning Coster, Cambridge, Miss.), and cultured. The cells were cultured in Dulbecco's Modified Eagle Medium (DMEM: Invitrogen, Glasgow, UK) containing 4500 mg/L glucose, supplemented with NEAA, L-Gln, PS, β-ME, 10 μg/ml insulin (Sigma-Aldrich), 5.5 μg/ml transferrin (Sigma-Aldrich), 6.7 pg/ml selenium (Sigma-Aldrich), and 0.25% Albmax (Invitrogen), 10 ng/mL recombinant human activin-A (R&D Systems, Minneapolis, Minn.), 5 ng/mL; recombinant human bFGF for 7 days (d1-d7) (I of FIG. 1). And then, the medium was changed to RPMI 1640 medium (Invitrogen) containing 2000 mg/L glucose (Sigma, St Louis, Mo.), 1 μM Retinoic acid (Sigma-Aldrich), 50 ng/ml Human Recombinant Fibroblast Growth Factor-10 (Peprotech, Rocky Hill, N.J.), B27 SUPPLEMENT (Invitrogen) and 0.25 μM 3-Keto-N-(aminoethyl-aminocaproyl-dihydrocinnamoyl) cyclopamine Shh Signaling Antagonist II (Calbiochem, San Diego, Calif.) on d7 to d11 (II of FIG. 1). Finally, the medium was switched to DMEM containing 1000 mg/L glucose supplemented with NEAA, L-Gln, PS, β-ME, 10 μg/ml insulin (Sigma-Aldrich), 5.5 μg/ml transferrin (Sigma-Aldrich), 6.7 pg/ml selenium (Sigma-Aldrich), 0.25% Albmax (Invitrogen) and 10 mM nicotinamide (Sigma-Aldrich) on d11 to d17 (III of FIG. 1). Media were replaced every 2 days with fresh medium and growth factors until d17.
All tested small chemical compounds were solved in dimethyl sulfoxide (DMSO) at given concentration. Compounds were added on d11, d13 and d15 in a medium. Final concentration of DMSO was adjusted at 1.0% in all experiments for compounds.
After 17 days cell culture, cultured ES cells were fixed in 4% paraformaldehyde in PBS for 30 min at room temperature, and rinsed several times with PBS. Then, cells were incubated in the added diluted primary antibody in 20% Blocking One (Nacalai tesque, Tokyo, Japan) in PEST (0.1% Tween-20 in PBS) in a humidified chamber for overnight at 4° C. After washing the cells in PBST, cells were incubated with the secondary antibody in 20% Blocking One for 2 hr at room temperature in dark. After washing off the secondary antibody in PBST, cells were counterstained with […] (DAPI) (Roche Diagnostics). The following antibodies were used as First antibodies: Rabbit anti-GFP (MBL International Corp., Woburn, Mass.), Mouse anti-Insulin (Sigma). The following antibodies were used as Secondary antibodies: Alexa 568-conjugated, Alexa 488-conjugated antibodies (Invitrogen) Cells were counterstained with DAPI (Roche Diagnotics, Basel, Switzerland).

Another assay has as its system Ngn3/GFP mouse ES cells. Description: Ngn3 positive cell inducing rate. Format: cell-based. Here is the method:
The influence exerted on the Ngn3 positive cell inducing rate by addition of TBZ (2.5 μM) or dBu-cAMP (0.6 μM) was confirmed. FIG. 16A is a view schematically showing the addition periods of TBZ or dBu-cAMP, and the addition periods are a) on days 9 to 11 of culture, b) on days 11 to 13 of culture, and c) on days 9 to 13 of culture.
First, the compound was not added or TBZ was added on days 9 to 13 of culture (period c), and visible light photographs and fluorescence of Ngn3/GFP mouse ES cells were observed on day 13 of culture. The left one is a visible light photograph and the right one is fluorescence.
Next, the compound was not added, or TBZ or dBu-cAMP was added under the above-described conditions a), b) and c), and the proportion of GFP positive cells on day 13 of culture was checked. The ratios of the proportions of GFP positive cells and Ngn3 positive cells when the ratio in the case of no addition is 1 are shown in FIG. 16C. […] The order of intensity of the effect was a), c), b) in descending order.

Assay [2] deals with differentiated ES cells. Description: Secreted insulin and cellular insulin content by mouse c-peptide ELISA. Format: cell-based. Particulars: TBZ 2.5 μM, dBu-cAMP 0.6 μM, day 11 to 17; sorted GFP positive cells day 17 (FIG. 18D). (In general: ELISA stands for enzyme-linked immunosorbent assay.)
In assay [3] the test system is differentiated ES cells. The assay can be described thus: Real time PCR of gene expression in differentiated ES cells. Format: cell-based, mouse. Particulars: TBZ 2.5 μM. (In general: Quantitative PCR measures a nucleic acid by following its amplification.)

Take `COC(=O)[C@H]1[C@H]2C[C@@H]3c4[nH]c5cc(OC)ccc5c4CCN3C[C@H]2C[C@@H](OC(=O)c2cc(OC)c(OC)c(OC)c2)[C@@H]1OC` [Reserpine, reserpine]: the “promotion of differentiation into insulin-producing cells” value with Drd2KD cells is “did not promote differentiation”. Further, the “hit confirmed by dose-responsiveness” value in assay [1] (0.08 to 10 μM, SK7 ES cells) is “positive”. Also, the “effect on differentiation into insulin-expressing cells” value in assay [1] is reported as “enhanced insulin-positive staining; also recorded: increased insulin-producing cells”; in assay [1] (listed as reserpine), “concentration-dependent effect was observed”. The “concentration of maximum effect on insulin positive cells” value in assay [1] (concentration-dependent test at 0 to 10 μM (FIG. 4)) was determined as 0.63 µM. Besides, the “effect on Pdx1 positive pancreatic precursor cells” value in assay [1] (reserpine 0.63 μM, Pargyline 1 μM (FIG. 6, 7)) was “did not change the number of pancreatic precursor cells”.

Consider `COc1cc2c(cc1OC)C1CC(=O)C(CC(C)C)CN1CC2` (stereo not drawn) [Tetrabenazine, tetrabenazine], for which, in the assay on Ngn3/GFP mouse ES cells (TBZ 2.5 μM on days 9 to 13, observed day 13 (FIG. 16B)), the “Ngn3 positive cells (fluorescence)” value was “increase of Ngn3 positive cells”. Also, the “number of GFP positive cells” value in the assay with Ngn3/GFP mouse ES cells (TBZ 2.5 μM or dBu-cAMP 0.6 μM, addition days 9-11, 11-13 or 9-13, day 13 (FIG. 16C)) is “increased in all conditions”. The “effect on differentiation into insulin-expressing cells” value in assay [1] is given as “promoted the differentiation into insulin-expressing cells”. For the same compound, the “C-peptide content of GFP positive cells” value with differentiated ES cells [2] is given as “increased”. In the assay with differentiated ES cells [3] (dBu-cAMP 0.6 μM (FIG. 13)), the “expression of Abcc8” value is listed as “did not increase”, the “expression of Glut2” value is “did not increase”, the “expression of MafA” value is “increased slightly” and the “expression of Stx1” value was “increased slightly”. In addition, in the assay with differentiated ES cells [3] (dBu-cAMP 0.6 μM from day 11, after day 13 (FIG. 15)), the “expression level of MafA, time course” value is listed as “promoted”. In the assay with differentiated ES cells [3] (dBu-cAMP 0.6 μM from day 11, after day 15 (FIG. 15)), the “expression level of Nkx6.1” value is given as “strongly promoted”. In the assay on differentiated ES cells [3] (dBu-cAMP 0.6 μM from day 11, day 13 and day 15 (FIG. 15)), the “expression level of Ngn3” value is given as “increased remarkably”. Moreover, the “expression level of Insulin1” value in the assay with differentiated ES cells [3] (dBu-cAMP 0.6 μM from day 11, single after day 13, both after day 15 (FIG. 15)) is given as “promoted”.

The values above are taken from US9617517B2, “Small chemical compound which promotes induction of differentiation of stem cells into insulin-producing cells and method for inducing differentiation of stem cells into insulin-producing cells using said small chemical compound” (NATIONAL UNIVERSITY CORPORATION KUMAMOTO UNIVERSITY, priority 2011, dated 2017).
